Where “and” joins values, the source holds several entries; their conditions need not be identical. Equal values may be shown once. Read-outs that look alike come from different tables or passages of the source.
Experiments:
panel of 270 kinases [1] = test: Selectivity across panel of 270 kinases (residual activity radar chart, kinome tree)
VEGFR2/KDR = biological target: T1, VEGFR2/KDR (Homo sapiens, UniProt P35968); test: Kinase panel enzyme activity assay (MSA or IMAP), percent inhibition at fixed concentration; format: biochemical
T1 construct: cytoplasmic domain of VEGFR2, encompassing amino acid residue 790 to 1356 (C-terminus); purchased Carna Biosciences, Inc. (Kobe, Japan); host or cells: insect cells
Description: (§1) Kinase assays were performed to evaluate inhibitor activity on VEGFR2 and other kinases using either mobility shift assays (MSA) or immobilized metal ion affinity particle (IMAP) assays at Carna Biosciences, Inc (Kobe, Japan). The panel of kinases assayed comprises all wild-type kinases available for profiling at Carna Biosciences, Inc. For VEGFR2, the same cytoplasmic domain was used as in the SPR binding assay.
(§2) Off-chip MSA was performed by preparing a 4 × substrate/ATP/metal solution using kit buffer (20 mM HEPES, 0.01% Triton X-100, 5 mM DTT, pH 7.5), and a 2 × kinase solution was prepared in assay buffer (20 mM HEPES, 0.01% TritonX-100, 1 mM DTT, pH 7.5). […] A 4 × compound solution and the 4 × substrate/ATP/metal solution, and 2 × kinase solution were mixed and incubated in a 384-well microplate at room temperature for 1 or 5 h, dependent on the kinase. Termination Buffer (QuickScout Screening Assist MSA; Carna Biosciences) was added to the well, and the reaction mixture was applied to the LabChip™ system (Perkin Elmer) to separate and quantitate the product and substrate peptide peaks. The kinase reaction was measured using the product ratio calculated from the peak heights of the product (P) and substrate (S) peptides: [P/(P + S)].
(§3) For the IMAP assays, a 4 × substrate/ATP/metal solution and 2 × kinase solution were prepared using assay buffer (20 mM HEPES, 0.01% Tween 20, 2 mM DTT, pH 7.4). ATP concentrations in the solution were within twofold of the affinity for ATP (KM,ATP) for each individual kinase. Then, the 4 × compound solution, 4 × substrate/ATP/metal solution, and 2 × kinase solution were mixed and incubated in a single well of a polystyrene 384-well black microplate. After incubating for 1 h at room temperature, IMAP-binding reagent (IMAP Screening Express kit; Molecular Devices) was added to the well and incubated for 30 min. The kinase reaction in each well was measured via fluorescence polarization at excitation of 485 nm and emission of 530 nm.
(§4) IC50 values were calculated by fitting a 4-parameter logistic curve to the percentage inhibition values at the tested concentrations.
(§5) To compare the selectivity of rivoceranib and the 10 reference inhibitors, we performed either IMAP assays or off-chip MSA to assess the residual kinase activity of a panel of 270 kinases in the presence of 160 nM or 1600 nM rivoceranib or 1000 nM of reference inhibitor. The 270 kinases represent a broad representation of the more than 500 kinases encoded by the human genome.

KIT = biological target: T2, KIT (Homo sapiens, UniProt P10721); test: as above; format: biochemical
T2 construct: purchased Carna Biosciences, Inc. (Kobe, Japan)
Description: as §1, §2, §3, §4, §5

PDGFRβ = biological target: T3, PDGFRβ (Homo sapiens, UniProt P09619); test: as above; format: biochemical
T3 construct: purchased Carna Biosciences, Inc. (Kobe, Japan)
T3 sequence (P09619 33-1106): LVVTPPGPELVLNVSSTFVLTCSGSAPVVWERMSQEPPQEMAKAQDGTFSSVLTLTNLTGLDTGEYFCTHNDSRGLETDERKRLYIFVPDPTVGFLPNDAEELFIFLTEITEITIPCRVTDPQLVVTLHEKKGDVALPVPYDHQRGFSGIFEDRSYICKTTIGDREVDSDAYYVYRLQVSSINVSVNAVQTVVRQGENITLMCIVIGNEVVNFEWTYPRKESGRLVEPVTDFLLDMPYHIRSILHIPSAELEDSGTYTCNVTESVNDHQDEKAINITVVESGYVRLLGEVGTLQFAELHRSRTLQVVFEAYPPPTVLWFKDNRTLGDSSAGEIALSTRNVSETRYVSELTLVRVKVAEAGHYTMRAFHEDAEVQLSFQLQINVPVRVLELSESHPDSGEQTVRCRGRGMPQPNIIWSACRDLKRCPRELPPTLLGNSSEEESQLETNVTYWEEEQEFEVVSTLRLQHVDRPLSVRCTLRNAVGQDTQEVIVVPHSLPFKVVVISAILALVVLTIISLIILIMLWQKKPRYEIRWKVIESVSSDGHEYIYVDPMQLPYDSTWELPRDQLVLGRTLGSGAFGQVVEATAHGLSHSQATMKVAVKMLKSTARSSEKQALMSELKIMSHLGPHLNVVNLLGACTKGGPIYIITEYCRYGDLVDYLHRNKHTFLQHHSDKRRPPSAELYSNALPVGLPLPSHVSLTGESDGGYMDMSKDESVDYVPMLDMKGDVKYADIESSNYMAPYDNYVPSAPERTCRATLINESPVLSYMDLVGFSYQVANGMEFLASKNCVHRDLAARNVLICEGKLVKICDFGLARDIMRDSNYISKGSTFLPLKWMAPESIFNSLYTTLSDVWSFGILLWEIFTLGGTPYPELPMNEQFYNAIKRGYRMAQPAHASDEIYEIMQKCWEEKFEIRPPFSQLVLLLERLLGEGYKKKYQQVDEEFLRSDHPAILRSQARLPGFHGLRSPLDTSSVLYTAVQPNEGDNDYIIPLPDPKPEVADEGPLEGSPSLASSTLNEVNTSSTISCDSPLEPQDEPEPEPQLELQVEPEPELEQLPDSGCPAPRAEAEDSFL
Description: as §1, §2, §3, §4, §5

VEGFR1/FLT1 = biological target: T4, VEGFR1/FLT1 (Homo sapiens, UniProt P17948); test: as above; format: biochemical
T4 construct: purchased Carna Biosciences, Inc. (Kobe, Japan)
T4 sequence (P17948 27-1338): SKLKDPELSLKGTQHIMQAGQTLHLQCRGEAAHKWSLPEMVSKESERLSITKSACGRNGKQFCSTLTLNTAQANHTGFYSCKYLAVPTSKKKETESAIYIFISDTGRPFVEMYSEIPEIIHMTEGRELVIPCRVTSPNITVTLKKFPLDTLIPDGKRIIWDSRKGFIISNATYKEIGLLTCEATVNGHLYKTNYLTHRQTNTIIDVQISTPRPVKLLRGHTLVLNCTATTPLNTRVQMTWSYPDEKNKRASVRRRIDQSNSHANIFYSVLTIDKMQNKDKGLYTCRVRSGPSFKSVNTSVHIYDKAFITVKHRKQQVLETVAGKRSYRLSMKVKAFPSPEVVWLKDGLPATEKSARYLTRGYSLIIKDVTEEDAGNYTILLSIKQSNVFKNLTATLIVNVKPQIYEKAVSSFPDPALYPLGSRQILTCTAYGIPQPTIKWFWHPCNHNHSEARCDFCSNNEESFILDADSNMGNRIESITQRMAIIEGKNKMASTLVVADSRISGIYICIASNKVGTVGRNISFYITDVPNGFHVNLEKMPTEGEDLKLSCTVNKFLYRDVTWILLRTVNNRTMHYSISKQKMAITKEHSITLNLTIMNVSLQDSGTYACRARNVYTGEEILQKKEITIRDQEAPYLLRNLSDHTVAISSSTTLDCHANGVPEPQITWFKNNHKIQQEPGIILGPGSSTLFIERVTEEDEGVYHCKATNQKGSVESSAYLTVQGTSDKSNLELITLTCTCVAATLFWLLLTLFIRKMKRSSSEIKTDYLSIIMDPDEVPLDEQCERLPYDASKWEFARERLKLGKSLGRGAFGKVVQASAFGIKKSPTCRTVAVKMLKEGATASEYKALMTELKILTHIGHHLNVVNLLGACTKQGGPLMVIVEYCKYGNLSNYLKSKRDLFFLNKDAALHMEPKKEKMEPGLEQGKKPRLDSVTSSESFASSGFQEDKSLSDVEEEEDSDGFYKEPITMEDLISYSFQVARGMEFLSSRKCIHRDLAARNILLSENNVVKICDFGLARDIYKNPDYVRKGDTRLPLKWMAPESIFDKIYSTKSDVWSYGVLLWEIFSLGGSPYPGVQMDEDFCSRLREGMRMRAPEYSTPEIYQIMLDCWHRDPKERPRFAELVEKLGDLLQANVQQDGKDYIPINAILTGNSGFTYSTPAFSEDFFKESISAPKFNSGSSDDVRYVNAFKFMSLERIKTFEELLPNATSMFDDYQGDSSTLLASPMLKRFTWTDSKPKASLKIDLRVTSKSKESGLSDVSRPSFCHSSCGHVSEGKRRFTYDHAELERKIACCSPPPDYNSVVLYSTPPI
Description: as §1, §2, §3, §4, §5

VEGFR3/FLT4 = biological target: T5, VEGFR3/FLT4 (Homo sapiens, UniProt P35916); test: as above; format: biochemical
T5 construct: purchased Carna Biosciences, Inc. (Kobe, Japan)
T5 sequence (P35916 25-1363): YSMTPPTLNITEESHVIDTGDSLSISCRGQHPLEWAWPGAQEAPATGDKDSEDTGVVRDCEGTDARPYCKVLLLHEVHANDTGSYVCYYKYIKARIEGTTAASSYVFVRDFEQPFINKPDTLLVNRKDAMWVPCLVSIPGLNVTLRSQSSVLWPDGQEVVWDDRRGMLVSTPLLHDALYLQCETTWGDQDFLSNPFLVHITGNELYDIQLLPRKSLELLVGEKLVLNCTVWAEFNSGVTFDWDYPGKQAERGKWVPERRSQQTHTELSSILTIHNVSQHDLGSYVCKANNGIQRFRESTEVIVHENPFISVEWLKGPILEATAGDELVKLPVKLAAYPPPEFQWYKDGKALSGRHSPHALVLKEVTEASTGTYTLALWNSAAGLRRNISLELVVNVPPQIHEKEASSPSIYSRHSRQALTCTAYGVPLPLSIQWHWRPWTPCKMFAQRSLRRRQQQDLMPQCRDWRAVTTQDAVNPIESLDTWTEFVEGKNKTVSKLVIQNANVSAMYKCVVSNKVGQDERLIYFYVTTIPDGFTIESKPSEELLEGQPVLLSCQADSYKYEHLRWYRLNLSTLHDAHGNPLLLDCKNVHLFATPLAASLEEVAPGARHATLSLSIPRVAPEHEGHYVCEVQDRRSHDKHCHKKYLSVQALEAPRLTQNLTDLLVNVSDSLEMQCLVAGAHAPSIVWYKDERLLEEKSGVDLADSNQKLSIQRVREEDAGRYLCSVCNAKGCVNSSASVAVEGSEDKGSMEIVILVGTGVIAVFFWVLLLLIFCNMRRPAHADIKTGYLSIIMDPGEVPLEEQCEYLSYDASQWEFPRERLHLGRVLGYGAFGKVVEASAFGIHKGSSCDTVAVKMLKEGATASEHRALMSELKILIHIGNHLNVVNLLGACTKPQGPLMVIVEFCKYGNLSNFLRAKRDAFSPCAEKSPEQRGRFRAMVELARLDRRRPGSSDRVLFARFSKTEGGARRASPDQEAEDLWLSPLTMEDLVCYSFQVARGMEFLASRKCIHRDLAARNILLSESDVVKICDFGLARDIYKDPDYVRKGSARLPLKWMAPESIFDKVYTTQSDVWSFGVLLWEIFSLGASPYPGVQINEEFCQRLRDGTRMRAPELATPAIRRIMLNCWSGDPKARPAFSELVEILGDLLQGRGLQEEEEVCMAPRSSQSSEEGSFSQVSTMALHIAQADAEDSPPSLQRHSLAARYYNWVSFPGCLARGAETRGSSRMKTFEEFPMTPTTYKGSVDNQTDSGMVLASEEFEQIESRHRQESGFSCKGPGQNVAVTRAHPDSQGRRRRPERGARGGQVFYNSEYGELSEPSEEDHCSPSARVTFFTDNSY
Description: as §1, §2, §3, §4, §5

RET = biological target: T6, RET (Homo sapiens, UniProt P07949); test: as above; format: biochemical
T6 construct: purchased Carna Biosciences, Inc. (Kobe, Japan)
T6 sequence (P07949 29-1114): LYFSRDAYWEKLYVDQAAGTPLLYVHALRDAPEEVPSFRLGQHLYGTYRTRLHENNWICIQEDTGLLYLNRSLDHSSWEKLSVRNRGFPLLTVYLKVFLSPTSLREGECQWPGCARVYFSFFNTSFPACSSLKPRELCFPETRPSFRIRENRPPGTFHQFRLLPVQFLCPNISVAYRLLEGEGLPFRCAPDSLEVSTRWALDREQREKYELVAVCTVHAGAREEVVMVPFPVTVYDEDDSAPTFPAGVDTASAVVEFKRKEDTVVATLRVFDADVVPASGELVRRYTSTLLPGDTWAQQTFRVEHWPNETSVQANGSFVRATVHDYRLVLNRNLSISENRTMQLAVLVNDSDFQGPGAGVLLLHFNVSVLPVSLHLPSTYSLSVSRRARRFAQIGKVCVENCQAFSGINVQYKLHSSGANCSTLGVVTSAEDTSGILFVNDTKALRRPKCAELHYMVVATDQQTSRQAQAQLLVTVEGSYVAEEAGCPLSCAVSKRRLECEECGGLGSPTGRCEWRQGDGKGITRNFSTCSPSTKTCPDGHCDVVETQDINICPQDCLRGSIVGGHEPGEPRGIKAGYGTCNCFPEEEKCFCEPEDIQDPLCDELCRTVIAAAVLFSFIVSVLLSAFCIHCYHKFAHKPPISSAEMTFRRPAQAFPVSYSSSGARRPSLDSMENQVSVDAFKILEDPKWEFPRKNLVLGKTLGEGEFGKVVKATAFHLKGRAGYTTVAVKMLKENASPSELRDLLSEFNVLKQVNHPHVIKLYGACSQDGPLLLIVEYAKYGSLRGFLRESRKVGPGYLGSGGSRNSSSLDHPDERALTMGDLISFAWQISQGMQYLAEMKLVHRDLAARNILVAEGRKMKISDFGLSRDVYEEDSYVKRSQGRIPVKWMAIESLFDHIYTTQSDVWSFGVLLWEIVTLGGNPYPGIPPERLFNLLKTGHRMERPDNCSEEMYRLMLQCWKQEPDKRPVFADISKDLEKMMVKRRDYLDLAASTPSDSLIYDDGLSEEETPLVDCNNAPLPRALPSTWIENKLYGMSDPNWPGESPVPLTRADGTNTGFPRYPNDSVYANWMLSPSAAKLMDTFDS
Description: as §1, §2, §3, §4, §5

VEGFR2 [2] = biological target: T7, VEGFR2 (Homo sapiens, UniProt P35968); test: Surface plasmon resonance (Biacore T200) binding of rivoceranib to biotinylated VEGFR2 cytoplasmic domain
VEGFR2 [3] = biological target: T7, VEGFR2; test: VEGFR2 kinase activity, off-chip mobility shift assay (MSA), dose-response
VEGFR2 [4] = details: cited from earlier work
panel of 270 kinases [5] = system: panel of 270 kinases; set-up: method as in PMID 24651269, PMID 30381447; details: 1000 nM reference inhibitor, compared among all inhibitors profiled; cited from earlier work
[6] = SPR, individual replicates 1a, 1b, 2a, 2b
[7] = 1000 nM reference inhibitor, panel of 270 kinases

Structure (SMILES): N#CC1(c2ccc(NC(=O)c3cccnc3NCc3ccncc3)cc2)CCCC1 [rivoceranib]
- Overall residual kinase activity across the panel of kinases (panel of 270 kinases [1]; 160 nM and 1600 nM rivoceranib, compared among all inhibitors profiled): the greatest residual kinase activity
- Percent inhibition (VEGFR2/KDR; rivoceranib 160 nM): 96.12%
- inhibition at […] (VEGFR2/KDR; rivoceranib 160 nM): 96.1%
- Percent inhibition (VEGFR2/KDR; rivoceranib 1600 nM): 100.79%
- inhibition at […] (VEGFR2/KDR; rivoceranib 1600 nM): 101%
- inhibition at […] (KIT; rivoceranib 160 nM): 47.3%
- Percent inhibition (KIT; rivoceranib 1600 nM): 92.58%
- inhibition at […] (KIT; rivoceranib 1600 nM): 92.6%
- Percent inhibition (PDGFRβ; rivoceranib 160 nM): 62.11%
- inhibition at […] (PDGFRβ; rivoceranib 160 nM): 62.1%
- inhibition at […] (PDGFRβ; rivoceranib 1600 nM): 94.8%
- Percent inhibition (VEGFR1/FLT1; rivoceranib 160 nM): 93.27%
- inhibition at […] (VEGFR1/FLT1; rivoceranib 160 nM): 93.3%
- Percent inhibition (VEGFR1/FLT1; rivoceranib 1600 nM): 99.53%
- inhibition at […] (VEGFR1/FLT1; rivoceranib 1600 nM): 99.5%
- inhibition at […] (VEGFR3/FLT4; rivoceranib 160 nM): 92.9%
- Percent inhibition (VEGFR3/FLT4; rivoceranib 1600 nM): 99.33%
- inhibition at […] (VEGFR3/FLT4; rivoceranib 1600 nM): 99.3%
- Percent inhibition (RET; rivoceranib 160 nM): 71.72%
- inhibition at […] (RET; rivoceranib 160 nM): 71.7%
- Percent inhibition (RET; rivoceranib 1600 nM): 97.89%
- inhibition at […] (RET; rivoceranib 1600 nM): 97.9%
- Kd (VEGFR2 [2]; KD (binding affinity, KD = kd/ka), SPR, single-cycle kinetics, 22 °C, 1:1 model, based on four replicates): 2.08 nM and 2 nM and ~2 nM
- Kd (VEGFR2 [2]; KD, SPR, individual replicates 1a, 1b, 2a, 2b): 3.06 nM and 1.84 nM and 1 nM and 3.34 nM
- kd (VEGFR2 [2]; SPR, geometric average of four replicates): 0.000807 s⁻¹
- ka (VEGFR2 [2]; [6]): 303000 M⁻¹ s⁻¹ and 253000 M⁻¹ s⁻¹ and 445000 M⁻¹ s⁻¹ and 659000 M⁻¹ s⁻¹
- kd (VEGFR2 [2]; [6]): 0.000775 s⁻¹ and 0.000557 s⁻¹ and 0.000445 s⁻¹ and 0.0022 s⁻¹
- kon (VEGFR2 [2]; read-out: ka, SPR, geometric average of four replicates): 387000 M⁻¹ s⁻¹
- IC50 (VEGFR2 [3]): 16 nM
- IC50 (VEGFR2 [4]; read-out: IC50 for VEGFR2 kinase inhibition in a previous study, ATP 10 µM): 1 nM

Structure (SMILES): COc1cc2nccc(Oc3ccc(NC(=O)NC4CC4)c(Cl)c3)c2cc1C(N)=O [lenvatinib]
- Number of kinases inhibited by 50% or more (panel of 270 kinases [1]; [7]): 31
- IC50 (VEGFR2 [4]; read-out: Reported IC50 values (VEGFR2), published literature, ref Brody T., 2018): 4 nM

Structure (SMILES): CCN(CC)CCNC(=O)c1c(C)[nH]c(/C=C2\C(=O)Nc3ccc(F)cc32)c1C [sunitinib]
- Number of additional kinases beyond VEGFR2 inhibited by > 50% (panel of 270 kinases [1]; [7]): 125
- Overall residual kinase activity across the panel of kinases (panel of 270 kinases [5]): the least residual kinase activity

Structure (SMILES): COc1cc2nccc(Oc3ccc(NC(=O)Nc4cc(C)on4)c(Cl)c3)c2cc1OC [tivozanib]
- Number of additional kinases beyond VEGFR2 inhibited by > 50% (panel of 270 kinases [1]; [7]): more than 70

Structure (SMILES): CNC(=O)c1cc(Oc2ccc(NC(=O)Nc3ccc(Cl)c(C(F)(F)F)c3)c(F)c2)ccn1 [regorafenib]
- IC50 (VEGFR2 [4]; read-out: Reported IC50 values (VEGFR2), published literature, ref Wilhelm SM et al., Int J Cancer. 2011): 4 nM

Reference: paper PMC10192158 (Cancer Chemotherapy and Pharmacology, 2023)
